The source of these data is patent US5455044A, “Method for treating neurological disorders” (priority 1993, dated 1995).

This series in a line: Effect of concurrent oral dexamethasone administration on DTC 101 toxicity.

Turning to `C[C@@H]1C[C@H]2[C@@H]3CCC4=CC(=O)C=C[C@]4(C)[C@@]3(F)[C@@H](O)C[C@]2(C)[C@@]1(O)C(=O)CO` [dexamethasone], the “effect on toxicities associated with DTC 101” value (oral, 2 to 4 mg twice per day) is on record as “major effect on blunting toxicities associated with DTC 101”. In addition, the “DTC 101 toxicity with concurrent oral dexamethasone” value (three patients, same dose of DTC 101 with and without dexamethasone) is given as “almost completely suppressed”.
